Reference: patent US20100029654A1, “CARDIOVASCULAR COMPOSITIONS AND USE OF THE SAME FOR THE TREATMENT OF ALZHEIMER'S DISEASE” (MOUNT SINAI SCHOOL OF MEDICINE, priority 2006, published 2010)
Where a name gives a salt, the structure may show the parent alone. Read-outs that look alike come from different tables or passages of the source.

How the values were obtained:
Aβ1-40 = Aβ1-40 content in conditioned medium of primary cortico-hippocampal neuron cultures from Tg2576 mice (ELISA; primary and secondary dose-response screening); type: cell-based, mouse; conditions: for activity at 100 µM: Mus musculus, Neuron, 24 h, read-out: Ab1-40 (% of ctl); for activity at 100 µM / Ab1-40 (% of ctl): drug 100 μM; for reduced Aβ1-40: <85% of ctl
Procedure: (§1) Potential Aβ-lowering activity was assessed for 150 commercially available cardiovascular drugs using primary cortico-hippocampal neuron cultures derived from embryonic Tg2576 (El 6). […] All cardiovascular reagents were obtained from MicroSource Discovery Systems Inc (Gaylordsville, Conn.). […] Individual cardiovascular agents were applied directly to the culture medium (final 1% DMSO in the culture media). In control studies, parallel Tg2576 primary neuron cultures were treated with vehicle (1% DMSO) alone. The influence of drug treatments in Aβ content in the conditioned medium in treated cultures was assessed by assessing steady state levels of Aβ1-40 and Aβ1-42 in the culture media 24 hours after treatment.
(§2) Embryonic brain tissue was mechanically triturated and centrifuged. Neurons were seeded onto poly-D-lysine-coated 96-well plates at 1.0×10^5 cells per well and cultured in the serum-free chemically-defined medium Neurobasal, supplemented with 2% B27, 0.5 mM L-glutamine and 1% penicillin-streptomycin (Gibco-BRL).
(§3) For primary screening, cultured neurons were treated with 100 μM of drug in duplicates for 16 hours; all drugs were obtained in stock from MicroSource Discovery Systems Inc (Gaylordsville, Conn.). Conditioned medium was collected for Aβ detection using commercially available ELISA kits (BioSource). […] Primary neurons prepared in 96-well plates were treated with 0.1 μM, 1 μM, 10 μM, 50 μM, and 100 μM of each drug in duplicate for ˜16 hours and conditioned medium was collected for Aβ detection.

Aβ1-42 = Aβ1-42 content in conditioned medium of primary cortico-hippocampal neuron cultures from Tg2576 mice (ELISA; primary and secondary dose-response screening); type: cell-based, mouse; conditions: for activity at 100 µM: Mus musculus, Neuron, 24 h, read-out: Ab1-42 (% of ctl); for activity at 100 µM / Ab1-42 (% of ctl): drug 100 μM; for reducing Aβ1-42: <85% of ctl
Procedure: as §1, §2, §3

[1] = system: primary cortico-hippocampal neuron cultures; experiment: MTT in primary screening
[2] = system: primary cortico-hippocampal neuron cultures; experiment: lactate dehydrogenase (LDH) activity assay in parallel neuron cultures
[3] = Primary Screening, table sorted by Aβ1-40
[4] = primary screening, Tg2576 neuron cultures, table sorted by Aβ1-42
[5] = primary screening, table sorted by Aβ1-42

Structure (SMILES) | activity at 100 µM (Aβ1-40; [3]) [%] | activity at 100 µM (Aβ1-40; [4]) [%] | activity at 100 µM (Aβ1-42; [3]) [%] | activity at 100 µM (Aβ1-42; [4]) [%] | MTT (% of ctl) [1, 3] | MTT (% of ctl) [1, 5] | LDH (% of ctl) [2, 3] | LDH (% of ctl) [2, 5] | Ab1-40 (% of ctl) (Aβ1-40; [3]) | reduced Aβ1-40 (Aβ1-40; primary screening) | Ab1-40 (% of ctl) (Aβ1-40; [4]) | Ab1-42 (% of ctl) (Aβ1-42; [3]) | reducing Aβ1-42 (Aβ1-42; primary screening) | Ab1-42 (% of ctl) (Aβ1-42; [4]) | LDH at E-5M % of change ([2]; drug at E-5M) [%]
CC(C)(C)NCC(O)c1ccccc1Cl (centres unmarked) [Tulobuterol] | 95.5 | 95.5 |  |  |  |  |  |  |  |  |  |  |  |  | 
CC(C)OC(=O)C(C)(C)Oc1ccc(C(=O)c2ccc(Cl)cc2)cc1 [Fenofibrate] | 13.9 | 13.9 | 77.7 | 77.7 | 97.5 % of ctl | 97.5 % of ctl | 140.0 % of ctl | 140.0 % of ctl |  |  |  |  |  |  | 
CC(=O)CC(c1ccccc1)c1c(O)c2ccccc2oc1=O (centres unmarked) [Warfarin] | 89.4 | 89.4 | 107 | 107 | 100.1 % of ctl | 100.1 % of ctl | 106.6 % of ctl | 106.6 % of ctl |  |  |  |  |  |  | 
O=C(O)C(O)C(O)C(=O)O.OCc1cccnc1 (centres unmarked) [Nicotinyl Tartrate] |  |  |  |  | 92.7 % of ctl | 92.7 % of ctl | 122.6 % of ctl | 122.6 % of ctl | 80.0 % of ctl | reduced Aβ1-40 | 80.0 % of ctl | 73.8 % of ctl | useful in reducing Aβ1-42 | 73.8 % of ctl | 
COc1ccc2cc1Oc1ccc(cc1)C[C@H]1c3cc(c(OC)cc3CCN1C)Oc1c(OC)c(OC)cc3c1[C@H](C2)N(C)CC3 [Tetrandrine] | 4.5 | 4.5 | 25.2 | 25.2 | 112.5 % of ctl | 112.5 % of ctl | 117.6 % of ctl | 117.6 % of ctl |  |  |  |  |  |  | 
NS(=O)(=O)c1cc2c(cc1C(F)(F)F)NCNS2(=O)=O [Hydroflumethiazide] | 92.4 | 92.4 | 90.2 | 90.2 | 98.9 % of ctl | 98.9 % of ctl | 99.7 % of ctl | 99.7 % of ctl |  |  |  |  |  |  | 
C=CCSCC1Nc2cc(Cl)c(S(N)(=O)=O)cc2S(=O)(=O)N1 (centres unmarked) [Althiazide] | 74.4 | 74.4 | 65.4 | 65.4 | 99.7 % of ctl | 99.7 % of ctl | 109.0 % of ctl | 109.0 % of ctl |  | reduced Aβ1-40 |  |  | useful in reducing Aβ1-42 |  | 
CCOC(=O)C1=C(COCCN)NC(C)=C(C(=O)OC)C1c1ccccc1Cl (centres unmarked) [Amlodipine Besylate] | 4.9 | 4.9 | 10.2 | 10.2 | 13.3 % of ctl | 13.3 % of ctl | 1188.9 % of ctl | 1188.9 % of ctl |  | reduced Aβ1-40 |  |  | useful in reducing Aβ1-42 |  | 
CCN(CC)CCNC(=O)c1ccc(N)cc1 [Procainamide Hydrochloride] | 118 | 118 | 109 | 109 | 96.8 % of ctl | 96.8 % of ctl | 111.1 % of ctl | 111.1 % of ctl |  |  |  |  |  |  | 
CCC(C)(C)C(=O)O[C@H]1C[C@@H](C)C=C2C=C[C@H](C)[C@H](CC[C@@H]3C[C@@H](O)CC(=O)O3)[C@H]21 [Simvastatin] | 28 | 28 | 122 | 122 | 93.4 % of ctl | 93.4 % of ctl | 129.9 % of ctl | 129.9 % of ctl |  |  |  |  |  |  | 
COc1cc2ccc(=O)oc2cc1O [Scopoletin] | 71.9 | 71.9 | 109 | 109 | 99.7 % of ctl | 99.7 % of ctl | 106.2 % of ctl | 106.2 % of ctl |  | reduced Aβ1-40 |  |  |  |  | 
CNCCc1ccccn1 [Betahistine Hydrochloride] | 110 | 110 | 98.9 | 98.9 | 107.1 % of ctl | 107.1 % of ctl | 107.3 % of ctl | 107.3 % of ctl |  |  |  |  |  |  | 
CCOC(=O)C(C)(C)Oc1ccc(Cl)cc1 [Clofibrate] | 90.9 | 90.9 | 92.5 | 92.5 | 97.9 % of ctl | 97.9 % of ctl | 110.5 % of ctl | 110.5 % of ctl |  |  |  |  |  |  | 
CCC(=O)O[C@@H](O[P@](=O)(CCCCc1ccccc1)CC(=O)N1C[C@H](C2CCCCC2)C[C@H]1C(=O)O)C(C)C [Fosinopril Sodium] | 94.7 | 94.7 | 95 | 95 | 101.4 % of ctl | 101.4 % of ctl | 75.6 % of ctl | 75.6 % of ctl |  |  |  |  |  |  | 
NC(N)=O [Urea] |  |  |  |  | 96.7 % of ctl | 96.7 % of ctl | 130.8 % of ctl | 130.8 % of ctl |  |  |  | 104.9 % of ctl |  | 104.9 % of ctl | 
CCCCc1oc2ccccc2c1C(=O)c1cc(I)c(OCCN(CC)CC)c(I)c1 [Amiodarone Hydrochloride] | 14.9 | 14.9 | 23.2 | 23.2 |  |  |  |  |  | reduced Aβ1-40 |  |  | useful in reducing Aβ1-42 |  | 1.9
CC(C)(Oc1ccc(CCNC(=O)c2ccc(Cl)cc2)cc1)C(=O)O [BENZAFIBRATE] |  |  |  |  |  |  |  |  | 107.2 % of ctl |  | 107.2 % of ctl | 99.5 % of ctl |  | 99.5 % of ctl | 
CC[C@@H](C)C(=O)O[C@H]1[C@H](O)[C@H]2[C@@H](CN3C[C@@H](C)CC[C@H]3[C@@]2(C)O)[C@@H]2C[C@]34O[C@]5(O)[C@@H](OC(=O)[C@@](C)(O)CC)CC[C@@]3(C)[C@@H]5[C@@H](OC(C)=O)[C@@H](OC(C)=O)[C@H]4[C@@]21O [Protoveratrine A] |  |  |  |  |  |  |  |  | 91.7 % of ctl |  | 91.7 % of ctl | 104.6 % of ctl |  | 104.6 % of ctl | 
